Like-named read-outs stand apart in the source and are kept apart here.
Legend:
CntL = CntL (Staphylococcus aureus, UniProt A0A0H3JXA8); assay: thermal shift assay; assay type: binding
[1] = biological target: T1, NAT (SAM:nocardicin 3-ACP transferase) (Nocardia uniformis, UniProt Q9RAH6); assay: thermal shift assay; assay type: binding; conditions: further addition to enzyme with nocardicin E (2)
T1 sequence (Q9RAH6 1-301): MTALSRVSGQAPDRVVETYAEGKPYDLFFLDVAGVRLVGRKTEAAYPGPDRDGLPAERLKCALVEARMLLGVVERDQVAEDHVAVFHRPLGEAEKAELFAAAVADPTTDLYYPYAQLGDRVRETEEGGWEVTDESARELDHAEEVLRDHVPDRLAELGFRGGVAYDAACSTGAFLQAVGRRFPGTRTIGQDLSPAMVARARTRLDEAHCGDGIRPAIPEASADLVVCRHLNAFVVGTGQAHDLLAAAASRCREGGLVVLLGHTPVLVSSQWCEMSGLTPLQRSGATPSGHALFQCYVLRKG

[2] = biological target: T1, NAT (SAM:nocardicin 3-ACP transferase); assay: thermal shift assay; assay type: binding; conditions: binds to a similar extent as SAM; no turnover with nocardicin E
[3] = biological target: T1, NAT (SAM:nocardicin 3-ACP transferase); assay: 3-ACP transfer, LC-MS; assay type: biochemical; conditions: SAM as co-substrate; very low yield

Chain of CntL (A0A0H3JXA8 whole entry): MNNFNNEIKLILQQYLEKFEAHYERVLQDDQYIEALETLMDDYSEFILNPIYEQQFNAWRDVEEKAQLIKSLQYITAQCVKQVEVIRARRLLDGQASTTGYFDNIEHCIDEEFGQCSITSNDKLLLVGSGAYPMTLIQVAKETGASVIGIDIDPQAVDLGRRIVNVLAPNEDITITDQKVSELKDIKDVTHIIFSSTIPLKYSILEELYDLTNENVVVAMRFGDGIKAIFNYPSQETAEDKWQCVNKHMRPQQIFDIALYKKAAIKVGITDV

With C[S+](CC[C@H](N)C(=O)O)C[C@H]1O[C@@H](n2cnc3c(N)ncnc32)[C@H](O)[C@@H]1O (stereo partly drawn) [SAM] the melting point (CntL) was “da-SAM can bind to the enzyme to the same extent as SAM” and the “increase in melting temperature” value [1] was 7 °C.

In the case of N[C@H](Cc1c[nH]cn1)C(=O)O [D-histidine], the melting point (CntL; with SAM present, no shift with da-SAM) is reported as “the melting point increased when CntL was combined with SAM and D-his”.

C[S+](CCCC(=O)[O-])C[C@H]1O[C@@H](n2cnc3c(N)ncnc32)[C@H](O)[C@@H]1O (stereo partly drawn) [deamino-SAM] was tested, and the melting temperature [2] was “deamino-SAM can bind to the enzyme to a similar extent as SAM”.

For CC1(C)S[C@@H]2[C@H](NC(=O)[C@H](N)c3ccc(O)cc3)C(=O)N2[C@H]1C(=O)O [amoxicillin], the “3-ACP transfer, LC-MS” value [3] was “NAT accepted both of them, to produce the 3-ACP-β-lactam products”.

For CC1=C(C(=O)O)N2C(=O)[C@@H](NC(=O)[C@H](N)c3ccc(O)cc3)[C@H]2SC1 [cefadroxil], the “3-ACP transfer, LC-MS” value [3] was “NAT accepted both of them, to produce the 3-ACP-β-lactam products”.
